Read-outs that look alike come from different tables or passages of the source.
Experiments:
human recombinant CB1R = human recombinant CB1R (Homo sapiens (Human), UniProt P21554); assay: CB1 receptor binding assay ([3H]CP-55,940 displacement, HEK-293 membranes); settings: membranes of HEK-293 cells with human recombinant CB1R, [3H]CP-55,940, read-out: CB1 IC50
In short: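 Displacement of [3H]CP-55,940 was measured on human CB1R- or CB2R-transfected HEK-293 membranes after 120 min at 37 °C, in duplicate, with filtration and scintillation counting. For CB2R, incubation used Tris-HCl 50 mM, MgCl2 5 mM, CaCl2 1 mM, BSA 0.2%, pH 7.4. Ki values were derived from variable-slope IC50 fits using Cheng–Prusoff.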

human CB2 receptor [1] = biological target: T1, human CB2 receptor (Homo sapiens (Human), UniProt P34972); assay: CB2 receptor binding assay ([3H]CP-55,940 displacement, HEK-293 membranes); settings: membranes of HEK-293 cells with human recombinant CB2R, [3H]CP-55,940, read-out: CB2 IC50
T1 sequence (P34972 whole entry): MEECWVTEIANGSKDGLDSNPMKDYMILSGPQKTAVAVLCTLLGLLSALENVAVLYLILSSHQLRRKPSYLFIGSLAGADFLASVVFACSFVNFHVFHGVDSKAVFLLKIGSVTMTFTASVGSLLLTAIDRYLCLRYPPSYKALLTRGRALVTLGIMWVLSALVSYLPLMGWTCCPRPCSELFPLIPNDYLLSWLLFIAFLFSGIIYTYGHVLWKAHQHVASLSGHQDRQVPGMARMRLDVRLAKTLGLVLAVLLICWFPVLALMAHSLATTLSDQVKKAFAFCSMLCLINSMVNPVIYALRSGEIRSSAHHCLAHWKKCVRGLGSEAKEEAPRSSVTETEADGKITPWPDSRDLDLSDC

human CB2 receptor [2] = biological target: T1, human CB2 receptor; assay: CB2 receptor cAMP assay (DiscoverX HitHunter cAMP XS+); type: cell-based; settings: for Emax: CHO-K1, read-out: Max Stimulation %
In short: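 CHO-K1 cells expressing human CB2, HitHunter cAMP XS+ chemiluminescence. Agonist mode with EC80 forskolin, inverse agonist with EC20 forskolin, antagonist mode by compound preincubation 30 min then EC80 agonist plus EC80 forskolin; 30 or 60 min at 37 °C or RT, 1% vehicle. IC50 from variable-slope fit.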

human recombinant CB1R, sequence (P21554 whole entry): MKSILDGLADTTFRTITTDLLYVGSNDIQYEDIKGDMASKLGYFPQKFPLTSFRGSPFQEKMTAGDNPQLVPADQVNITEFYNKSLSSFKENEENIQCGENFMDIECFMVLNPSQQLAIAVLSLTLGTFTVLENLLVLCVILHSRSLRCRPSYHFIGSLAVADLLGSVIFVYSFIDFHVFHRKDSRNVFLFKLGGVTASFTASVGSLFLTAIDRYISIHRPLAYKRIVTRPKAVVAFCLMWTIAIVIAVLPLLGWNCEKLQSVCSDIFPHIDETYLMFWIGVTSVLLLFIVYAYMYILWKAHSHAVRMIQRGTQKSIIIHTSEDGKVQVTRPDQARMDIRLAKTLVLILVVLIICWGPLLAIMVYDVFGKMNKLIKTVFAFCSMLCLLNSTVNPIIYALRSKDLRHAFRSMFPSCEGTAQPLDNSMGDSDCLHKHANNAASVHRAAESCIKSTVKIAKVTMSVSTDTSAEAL

| SMILES | IC50 (human recombinant CB1R) [nM] | IC50 (human CB2 receptor [1]) [nM] | IC50 (human CB2 receptor [2]) [nM] | Emax (human CB2 receptor [2]) [%] | IC50 (human recombinant CB1R; class symbols) [nM] | IC50 (human CB2 receptor [1]; class symbols) [nM] |
| --- | --- | --- | --- | --- | --- | --- |
| CC(C)c1cnc2c(c1)cc(C(=O)N[C@H](C)c1ccc(C#N)cc1)c(=O)n2Cc1ccc(F)cc1 [Compound 85, (R)—N-(1-(4-cyanophenyl)ethyl)-1-(4-fluorobenzyl)-6-isopropyl-2-oxo-1,2-dihydro-1,8-naphthyridine-3-carboxamide] | 605 | 7.9 | 0.5 | 93 | – | – |
| CC(C)c1cnc2c(c1)cc(C(=O)N[C@H](C)c1ccc(F)cc1)c(=O)n2Cc1ccc(F)cc1 [Compound 89, (R)-1-(4-fluorobenzyl)-N-(1-(4-fluorophenyl)ethyl)-6-isopropyl-2-oxo-1,2-dihydro-1,8-naphthyridine-3-carboxamide] | – | – | 7 | 92 | > 1000 | < 100 |
| C[C@@H](NC(=O)c1cc2cc(C3CC3)cnc2n(Cc2ccc(F)cc2)c1=O)c1ccc(F)cc1 [Compound 94, (R)-6-cyclopropyl-1-(4-fluorobenzyl)-N-(1-(4-fluorophenyl)ethyl)-2-oxo-1,2-dihydro-1,8-naphthyridine-3-carboxamide] | 3260 | 4.1 | 0.8 | 55 | – | – |
| C[C@@H](NC(=O)c1cc2cc(C3CC3)cnc2n(Cc2ccc(F)cc2)c1=O)c1ccc(C#N)cc1 [Compound 95, (R)—N-(1-(4-cyanophenyl)ethyl)-6-cyclopropyl-1-(4-fluorobenzyl)-2-oxo-1,2-dihydro-1,8-naphthyridine-3-carboxamide] | 895 | 3.2 | 2 | 60 | – | – |
| O=C(NC1CC2(CCC2)C1)c1cc2cc(Br)cnc2n(Cc2ccc(F)cn2)c1=O [Compound 99, 6-bromo-1-((5-fluoropyridin-2-yl)methyl)-2-oxo-N-(spiro[3.3]heptan-2-yl)-1,2-dihydro-1,8-naphthyridine-3-carboxamide] | > 10000 | 12 | 53 | 89 | – | – |
| CC(C)c1cnc2c(c1)cc(C(=O)N[C@H](C)c1ccc(F)cc1)c(=O)n2Cc1ccc(F)cn1 [Compound 100, (R)—N-(1-(4-fluorophenyl)ethyl)-1-((5-fluoropyridin-2-yl)methyl)-6-isopropyl-2-oxo-1,2-dihydro-1,8-naphthyridine-3-carboxamide] | 2880 | 4 | 2 | 82 | – | – |
| C[C@@H](NC(=O)c1cc2cc(C3COC3)cnc2n(Cc2ccc(F)cc2)c1=O)c1ccc(C#N)cc1 [Compound 101, (R)—N-(1-(4-cyanophenyl)ethyl)-1-(4-fluorobenzyl)-6-(oxetan-3-yl)-2-oxo-1,2-dihydro-1,8-naphthyridine-3-carboxamide] | 2110 | 7.6 | 21 | 71 | – | – |
| O=C(NC1CC2(CCC2)C1)c1cc2cc(C3COC3)cnc2n(Cc2ccc(F)cc2)c1=O [Compound 102, 1-(4-fluorobenzyl)-6-(oxetan-3-yl)-2-oxo-N-(spiro[3.3]heptan-2-yl)-1,2-dihydro-1,8-naphthyridine-3-carboxamide] | 1610 | 2.3 | 3 | 79 | – | – |
| C[C@@H](NC(=O)c1cc2cc(C3COC3)cnc2n(Cc2ccc(F)cc2)c1=O)c1ccc(F)cc1 [Compound 103, (R)-1-(4-fluorobenzyl)-N-(1-(4-fluorophenyl)ethyl)-6-(oxetan-3-yl)-2-oxo-1,2-dihydro-1,8-naphthyridine-3-carboxamide] | 2900 | 3 | 9 | 91 | – | – |
| COc1ccc(-c2cnc3c(c2)cc(C(=O)NCc2ccc(F)cc2)c(=O)n3CCN2CCOCC2)cc1 [Compound 105, N-(4-fluorobenzyl)-6-(4-methoxyphenyl)-1-(2-morpholinoethyl)-2-oxo-1,2-dihydro-1,8-naphthyridine-3-carboxamide] | > 10000 | 14 | 28 | 116 | – | – |

From patent US11564928B1, “Cannabinoid receptor type 2 (CB2) modulators and uses thereof” (Teon Therapeutics, Inc., priority 2020, dated 2023)
